The test has as its system PBMC. The test is described as follows: Efficacy screening assay. The format is cell-based. To be noted: Non-cancer, healthy donors, 72 h. On the procedure:
C. Western blots for acetylated α-Tubulin, total α-Tubulin, p21 and GAPDH (loading control).
Cells were treated with vehicle control (0.1 % DMSO), 1 µM or 3 µM resminostat for 24 hours. Grouped blots were composed from cropped parts of individual blots for each antibody. Original blots with exposures and indicated cropped areas can be found in the supplementary information.
D. Cell line screen determining the EC50s of resminostat in 74 cell lines representing 14 different ca ncer indications. In addition, peripheral blood mononuclear cells (PBMCs) from healthy donors were tested. Each dot represents an EC50. […]
labelled fluorogenic peptide substrates: fluorogenic peptide from p53 residues 379-382 (RHKK(Ac)AMC) for HDAC1, 2, 3, 6, 10, 11; fluorogenic HDAC Class IIa Substrate (Trifluoro acetyl Lysine, Ac-LGK(TFA)-AMC) for HDAC 4, 5, 7, 9; and fluorogenic peptide from p53 residues 379-382 (RHK(Ac)K(Ac)AMC) for HDAC8. […] In a second step, the deacetylated products were digested by the addition of developer for 1 h at 30°C to produce the fluorescent signal proportional to the amount of deacetylated substrates and the fluorescence was measured using an Envision plate reader at 355 nm (excitation) and 460 nm (emission). A kinetic measurement was performed for ~1 h with 5 min intervals and d ata from the final time point were analysed. […]

Data on one molecule can be found in publication PMC8100298, “Histone deacetylase inhibitor resminostat in combination with sorafenib counteracts platelet-mediated pro-tumoral effects in hepatocellular carcinoma” (Scientific Reports, 2021).

Molecules are shown by their SMILES. Like-named read-outs stand apart in the source and are kept apart here.

For the molecule `CN(C)Cc1ccc(S(=O)(=O)n2ccc(/C=C/C(=O)NO)c2)cc1` [resminostat, Resminostat], the EC50 runs as follows: (log of EC50, negative, read-out: log(EC50) (converted)) 8.71 µM; (read-out: EC50) 8.68 µM.
